Experimental data taken from US5321030A, “Creatine analogs having antiviral activity” (priority 1991, dated 1994).
In brackets after ≈: the same amount, converted by molar mass. Read-outs that look alike come from different tables or passages of the source.

Columns and labels:
HCMV, strain AD-169 = experiment: Plaque reduction assay, HCMV strain AD-169; assay type: cell-based, Human Cytomegalovirus; design: TI50 (CD50 ÷ ED50): unit not given here; conditions: for EC50: read-out: ED50 (the source's name)
[1] = system: Guinea Pig Cytomegalovirus, Strain 22122; experiment: CPE reduction assay, guinea pig cytomegalovirus in GPE cells; assay type: cell-based; design: TI50 (CD50 ÷ ED50): unit not given here; conditions: for Average CPE: virus controls 4.0
[2] = Cytotoxicity in plaque reduction assay, MRC-5 cells; assay type: cell-based, human; conditions: human, mrc-5 cells, read-out: CD50 (the source's name)
Experimental: (§1) Cytotoxicity was determined by examination of cells (located away from plaques) in infected wells which had been treated with drug.

[3] = system: HCMV, strain C8805-37 (DHPG resistant); experiment: microbe, parasite or virus in culture; assay type: cell-based, Human Cytomegalovirus; design: TI50 (CD50 ÷ ED50): unit not given beside the values; conditions: for # Plaques: virus control 11.5 ± 2.1
[4] = system: Varicella-Zoster Virus, strain Oka; experiment: microbe, parasite or virus in culture; assay type: cell-based; design: TI50 (CD50 ÷ ED50): unit not given beside the values
in vitro = conditions: guinea pig, gpe cells
[5] = Cytotoxicity in plaque reduction assay, Hs68 cells; assay type: cell-based; conditions: human, Table 5, previous data, read-out: CD50 (the source's name)
Experimental: as §1

[6] = system: HCMV, strain C8704 (DHPG resistant); experiment: microbe, parasite or virus in culture; assay type: cell-based, Human Cytomegalovirus; design: TI50 (CD50 ÷ ED50): unit not given beside the values; conditions: for # Plaques: virus control 91.0 ± 8.4
[7] = Cytotoxicity in plaque reduction assay, CV-1 cells; assay type: cell-based, African Green Monkey; conditions: monkey, Table 9B, read-out: CD50 (the source's name)
[8] = Human betaherpesvirus 5, MRC5, DHPG 1.0 μg/ml, read-out: % Reduction
[9] = Human betaherpesvirus 5, MRC5, DHPG 3.2 μg/ml, read-out: % Reduction
[10] = Human betaherpesvirus 5, MRC5, DHPG 10 μg/ml, read-out: % Reduction
[11] = Human betaherpesvirus 5, MRC5, DHPG 32 μg/ml, read-out: % Reduction
[12] = Human alphaherpesvirus 3, CV-1, read-out: % Reduction
[13] = Human alphaherpesvirus 3, MRC5, read-out: % Reduction

Which results are given for `Nc1nc(O)c2ncn(COC(CO)CO)c2n1` [DHPG, dihydroxypropoxymethylguanine, reference compound]?
TI50 (CD50 ÷ ED50) (HCMV, strain AD-169; Hs-68 cells, Table 5): > 526; # Plaques (HCMV, strain AD-169; Hs-68 cells, DHPG 1.0 μg/ml, virus control 74.2 ± 8.6): 68.5; # Plaques (HCMV, strain AD-169; Hs-68 cells, DHPG 3.2 μg/ml, virus control 74.2 ± 8.6): 7; # Plaques (HCMV, strain AD-169; Hs-68 cells, DHPG .32 μg/ml, virus control 74.2 ± 8.6): 100.5; EC50 (HCMV, strain AD-169; Human betaherpesvirus 5, AD169, Hs68, Hs-68 cells, Table 5): 1.9 µg/mL (≈ 7.44 µM); EC50 (HCMV, strain AD-169; Human betaherpesvirus 5, AD169, MRC5, MRC-5 cells, Table 4): 3.7 µg/mL (≈ 14.5 µM); TI50 (CD50 ÷ ED50) (HCMV, strain AD-169; MRC-5 cells, Table 4): > 27; # Plaques (HCMV, strain AD-169; MRC-5 cells, DHPG 3.2 μg/ml, virus control 26.4 ± 5.2): 15; # Plaques (HCMV, strain AD-169; MRC-5 cells, DHPG 10 μg/ml, virus control 26.4 ± 5.2): 0.5; # Plaques (HCMV, strain AD-169; MRC-5 cells, DHPG 32 μg/ml, virus control 26.4 ± 5.2): 0; # Plaques (HCMV, strain AD-169; MRC-5 cells, DHPG 100 μg/ml, virus control 26.4 ± 5.2): 0; EC50 ([1]; Caviid betaherpesvirus 2, GPE cells, Table 3, read-out: ED50 (the source's name)): 18.4 µg/mL (≈ 72.1 µM); Average CPE ([1]; DHPG 1.0 μg/ml): 4.0; Average CPE ([1]; DHPG 3.2 μg/ml): 4.0; Average CPE ([1]; DHPG 10 μg/ml): 3.5; Average CPE ([1]; DHPG 32 μg/ml): 0.7; Average CPE ([1]; DHPG 100 μg/ml): 0; Average CPE ([1]; DHPG 320 μg/ml): 0; Average CPE ([1]; DHPG 1000 μg/ml): 0; TI50 (CD50 ÷ ED50) ([1]; GPE cells, Table 3): > 54; CC50 ([2]; Table 4): > 100 µg/mL; CC50 ([2]; Table 6, previous data): > 1000 µg/mL; CC50 ([2]; Table 7, previous data): > 1000 µg/mL; CC50 ([2]; Table 9A, previous data): > 1000 µg/mL; # Plaques ([3]; DHPG 1.0 μg/ml): 13; # Plaques ([3]; DHPG 3.2 μg/ml): 6.5; # Plaques ([3]; DHPG 10 μg/ml): 10; # Plaques ([3]; DHPG 32 μg/ml): 4.5; inhibition at 1 µg/mL [3, 8]: 0%; inhibition at 3.2 µg/mL [3, 9]: 43%; inhibition at 10 µg/mL [3, 10]: 0%; inhibition at 32 µg/mL [3, 11]: 61%; EC50 ([3]; Human betaherpesvirus 5, MRC5, MRC-5 cells, Table 7, read-out: ED50 (the source's name)): 11 µg/mL (≈ 43.1 µM); TI50 (CD50 ÷ ED50) ([3]; MRC-5 cells, Table 7): > 91; # Plaques ([4]; CV-1 cells, DHPG 3.2 μg/ml, virus control 70.25 ± 6.9): 77; # Plaques ([4]; CV-1 cells, DHPG 10 μg/ml, virus control 70.25 ± 6.9): 63; inhibition at 3.2 µg/mL [4, 12]: 0%; inhibition at 10 µg/mL [4, 12]: 10%; EC50 ([4]; Human alphaherpesvirus 3, CV-1, read-out: ED50): > 10 µg/mL; inhibition at 0.32 µg/mL [4, 13]: 0%; inhibition at 1 µg/mL [4, 13]: 0%; inhibition at 3.2 µg/mL [4, 13]: 0%; inhibition at 10 µg/mL [4, 13]: 62%; EC50 ([4]; Human alphaherpesvirus 3, MRC5, read-out: ED50): 8 µg/mL (≈ 31.3 µM); TI50 (CD50 ÷ ED50) ([4]; MRC-5 cells, Table 9A): > 125; # Plaques ([4]; MRC-5 cells, DHPG 0.32 μg/ml, virus control 32.7 ± 9.3): 24.5; # Plaques ([4]; MRC-5 cells, DHPG 1.0 μg/ml, virus control 32.7 ± 9.3): 37; # Plaques ([4]; MRC-5 cells, DHPG 3.2 μg/ml, virus control 32.7 ± 9.3): 25; # Plaques ([4]; MRC-5 cells, DHPG 10 μg/ml, virus control 32.7 ± 9.3): 12.5; CC50 (in vitro): > 1000 µg/mL; CC50 [5]: > 1000 µg/mL; # Plaques ([6]; DHPG 1.0 μg/ml): 92.5; # Plaques ([6]; DHPG 3.2 μg/ml): 85; # Plaques ([6]; DHPG 10 μg/ml): 80; # Plaques ([6]; DHPG 32 μg/ml): 91; inhibition at 1 µg/mL [6, 8]: 0%; inhibition at 3.2 µg/mL [6, 9]: 0%; inhibition at 10 µg/mL [6, 10]: 0%; inhibition at 32 µg/mL [6, 11]: 41%; EC50 ([6]; Human betaherpesvirus 5, MRC5, MRC-5 cells, Table 6, read-out: ED50 (the source's name)): > 32 µg/mL; EC50 ([6]; Human betaherpesvirus 5, MRC5, MRC-5 cells, Table 6, read-out: ED50, approximate value in parentheses): ~41 µg/mL (≈ 161 µM); TI50 (CD50 ÷ ED50) ([6]; MRC-5 cells, Table 6): > 24; CC50 [7]: > 10 µg/mL
